Assay: in vitro
Details: human, hek293t cells

SMILES	viability at 48 h, 25 µM [%]
C=CC(=O)NCc1nnc(C(F)(F)F)s1 [1-O14, N-{[5-(trifluoromethyl)-1,3,4-thiadiazol-2-yl]methyl}prop-2-enamide]	131
C=CC(=O)NC1(c2ccccc2)CCCC1 [1-O15, N-(1-phenylcyclopentyl)prop-2-enamide]	95.6
C=CC(=O)NCC1CCS(=O)(=O)C1(C)C (stereo not shown) [1-O16, N-[(2,2-dimethyl-1,1-dioxo-1lambda6-thiolan-3-yl)methyl]prop-2-enamide]	103
C=CC(=O)N(Cc1ccccc1)C1CCOc2ccc(OC)cc21 (stereo not shown) [1-O17, N-benzyl-N-(6-methoxy-3,4-dihydro-2H-1-benzopyran-4-yl)prop-2-enamide]	71.6
C=CC(=O)NCc1ccnn1CC(F)(F)F [1-O18, N-{[1-(2,2,2-trifluoroethyl)-1H-pyrazol-5-yl]methyl}prop-2-enamide]	168
C=CC(=O)NC[C@@H]1C[C@H]1C1CCCCC1 [1-O19, N-{[(1R,2S)-2-cyclohexylcyclopropyl]methyl}prop-2-enamide]	106
C=CC(=O)Nc1ccc(C(F)C(F)(F)F)cc1 (stereo not shown) [1-O20, N-[4-(1,2,2,2-tetrafluoroethyl)phenyl]prop-2-enamide]	85.4
C=CC(=O)N1CCC(c2nc(C(=O)O)cs2)CC1 [1-O21, 2-[1-(prop-2-enoyl)piperidin-4-yl]-1,3-thiazole-4-carboxylic acid]	96.9
C=CC(=O)NC(C1CCC1)C1CCOC1 (stereo not shown) [1-O22, N-[cyclobutyl(oxolan-3-yl)methyl]prop-2-enamide]	113
C=CC(=O)N1CCc2cc(C(N)=O)ccc21 [1-P03, 1-(prop-2-enoyl)-2,3-dihydro-1H-indole-5-carboxamide]	172
C=CC(=O)N(Cc1ccccc1)Cc1ccccc1 [1-P04, N,N-dibenzylprop-2-enamide]	60.4
C=CC(=O)NC1CCC(c2nc(-c3ccccc3)n[nH]2)CC1 (stereo not shown) [1-P05, N-[4-(3-phenyl-1H-1,2,4-triazol-5-yl)cyclohexyl]prop-2-enamide]	104
C=CC(=O)Nc1ccc(C(N)=O)cc1C [1-P06, 3-methyl-4-(prop-2-enamido)benzamide]	84.8
C=CC(=O)N[C@H]1CCCC[C@H]1n1cc(C(C)(C)O)nn1 [1-P07, N-[(1S,2R)-2-[4-(2-hydroxypropan-2-yl)-1H-1,2,3-triazol-1-yl]cyclohexyl]prop-2-enamide]	128
C=CC(=O)NCC1(OC)CCC(C)CC1 (stereo not shown) [1-P08, N-[(1-methoxy-4-methylcyclohexyl)methyl]prop-2-enamide]	80.5
C=CC(=O)N(Cc1cn(C)nc1-c1ccc(F)cc1)C1CC(C)C1 (stereo not shown) [1-P09, N-{[3-(4-fluorophenyl)-1-methyl-1H-pyrazol-4-yl]methyl}-N-(3-methylcyclobutyl)prop-2-enamide]	64.1
C=CC(=O)NCC(C)c1ncc(C)s1 (stereo not shown) [1-P10, N-[2-(5-methyl-1,3-thiazol-2-yl)propyl]prop-2-enamide]	43.9
C=CC(=O)N1CCN(C(=O)c2ccco2)CC1 [1-P11, 1-[4-(furan-2-carbonyl)piperazin-1-yl]prop-2-en-1-one]	88.3
C=CC(=O)Nc1onc(C2CCCCC2)c1CC(C)C [1-P12, N-[3-cyclohexyl-4-(2-methylpropyl)-1,2-oxazol-5-yl]prop-2-enamide]	0.308
C=CC(=O)N(Cc1cn(C)nc1C)c1ccc2c(c1)OCCO2 [1-P13, N-(2,3-dihydro-1,4-benzodioxin-6-yl)-N-[(1,3-dimethyl-1H-pyrazol-4-yl)methyl]prop-2-enamide]	81.5
C=CC(=O)Nc1ncc(-c2cccc(C)c2)s1 [1-P14, N-[5-(3-methylphenyl)-1,3-thiazol-2-yl]prop-2-enamide]	63.6
C=CC(=O)N(Cc1cc(C)c2ncccc2c1)C(C)C1CCCO1 (stereo not shown) [1-P15, N-[(8-methylquinolin-6-yl)methyl]-N-[1-(oxolan-2-yl)ethyl]prop-2-enamide]	93.5

From paper PMC11995724, “Antibiotic target discovery by integrated phenotypic and activity-based profiling of electrophilic fragments” (Cell chemical biology, 2025)
